Reference: patent US20250223276A1, “Substituted Pyrrolidinyl And Piperidinyl Compounds And Related Methods Of Treatment” (Alkermes, Inc., priority 2022, published 2025)

Target: T1, human orexin-2 receptor (OX2R) (Homo sapiens, UniProt O43614)
T1 construct: expressed in transfected cells
T1 sequence (O43614 1-444): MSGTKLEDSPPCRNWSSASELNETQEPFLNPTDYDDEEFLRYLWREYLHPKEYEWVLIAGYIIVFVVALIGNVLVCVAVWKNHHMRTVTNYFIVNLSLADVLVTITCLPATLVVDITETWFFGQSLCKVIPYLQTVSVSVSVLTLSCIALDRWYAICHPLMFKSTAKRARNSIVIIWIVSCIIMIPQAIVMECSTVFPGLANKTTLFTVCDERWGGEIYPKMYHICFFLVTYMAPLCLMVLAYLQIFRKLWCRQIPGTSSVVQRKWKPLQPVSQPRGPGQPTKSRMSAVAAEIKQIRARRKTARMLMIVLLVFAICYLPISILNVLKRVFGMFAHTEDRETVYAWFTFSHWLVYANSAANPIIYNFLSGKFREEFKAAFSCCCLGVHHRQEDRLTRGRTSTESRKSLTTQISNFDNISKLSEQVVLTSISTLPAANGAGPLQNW
Assay: Human OX2R IP1 assay
Type: cell-based
Settings: T-Rex CHO cells stably overexpressing human OX2R; IP1 (inositol monophosphate) accumulation, HTRF; 1 hr at 37 degrees C
Protocol: T-Rex CHO cells stably overexpressing the human orexin-2 receptor (OX2R) are induced overnight with 1 μg/mL of doxycycline in a T225 flask. 24 hours post induction, cells are lifted with accutase and plated into a 384-well proxy plate at 30,000 cells/well. Cells are then treated with different test compounds in 1× stimulation buffer containing 10 mM Hepes, 1 mM CaCl2), 0.5 mM MgCl2, 4.2 mM KCl, 146 mM NaCl, 5.5 mM glucose, and 50 mM LiCl, pH 7.4, for 1 hr at 37 degrees C. Following incubation, the reaction is terminated by the addition of detection mix, which is composed of IP1-d2 and anti-IP1-cryptate diluted in lysis buffer as well as 1× stimulation buffer. The plates are allowed to incubate for 1 hour at room temperature and are then read in the En Vision® multimode plate reader, measuring inositol phosphate levels.
Cisbio IP1 is a cell-based functional assay quantifying the accumulation of inositol monophosphate (IP), a metabolite released as a result of orexin 2 receptor activation through the phospholipase C-Gq signaling pathway. This is a competitive immunoassay in which the IP1 produced by the cells upon receptor activation competes with the IP1 analog coupled to the d2 fluorophore (acceptor) for binding to an anti-IP1 monoclonal antibody labeled with Eu cryptate (donor). The measured HTRF-FRET based signal is inversely proportional to the IP1 concentration produced.
The EC50 values reported in Table 2 were obtained according to the human OX2R IP1 assay described above. Data are the mean EC50 values±S.E.M.

EC50 [nM]	Compound
> 1000	CC(C)N(C)[C@H]1CCN(S(=O)(=O)N[C@H]2CCN(c3cccnn3)C[C@H]2CO[C@H]2CC[C@@H](c3cccc(F)c3)CC2)C1 [Compound 56]
100 to 1000	CC(C)OC(=O)N1CC[C@H](NS(=O)(=O)N(C)C)[C@H](CO[C@H]2CC[C@@H](c3cccc(F)c3)CC2)C1 [Compound 50]
< 100	CN(C)S(=O)(=O)N[C@H]1CCN(C(=O)N2CCOCC2)C[C@H]1CO[C@H]1CC[C@@H](c2cccc(F)c2)CC1 [Compound 55]
